Laboratory results from patent US9718813B2, “Imidazolin-5-one derivative useful as FASN inhibitors for the treatment of cancer” (Janssen Pharmaceutica, NV, priority 2013, dated 2017).

Key:
[1] = target: hFASN enzyme (full length) (Homo sapiens (Human), UniProt P49327); test: Fatty Acid Synthase (FASN) Inhibition Scintillation Proximity Assay; type: biochemical; conditions: 3H-acetyl-CoA and malonyl-CoA substrates, SPA, mean if tested more than once
In short: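 Full-length human FASN (300 ng, in-house purified) in 100 mM KH2PO4 pH 7.5, 1 mM DTT converts 3H-acetyl-CoA plus malonyl-CoA to hydrophobic 3H-palmitate, captured by streptavidin imaging beads and read on LEADseeker at 610 nm after ≥24 h. Compounds tested 0.01–30 μM; data normalized to plate controls and fitted to 4-parameter logistic curves.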

A2780 ovarian cells = test: A2780 Ovarian Cell Proliferation Assay in Lipid Reduced Medium, with Palmitate; type: cell-based; conditions: Homo sapiens, 10% lipid-reduced serum, 25 μM palmitate, 96 h, MTT, read-out: pIC50 With Palmitate (converted)
Method: The biological assays described below correspond to comparative assays for ovarian cell proliferation.
2500 cells were seeded in a 96-well clear well plate in 200 μL RPM11640 with 10% Fetal Calf Serum (Hyclone), and incubated at 37° C., 5% CO2. Blanks were wells without cells. The next day the culture medium was aspirated and replaced by 160 μL culture medium with 10% Lipid-Reduced Serum (LRS, Hyclone). […] After 96 h incubation, an MTT assay was performed.

[2] = target: FASN Keto-reductase Domain (hFASN enzyme, full length) (Homo sapiens (Human), UniProt P49327); test: Fatty Acid Synthase Keto-reductase Domain (FASN KR) Inhibition; type: biochemical; conditions: NADPH oxidation at 340 nm, ethyl acetoacetate substrate
FASN Keto-reductase Domain (hFASN enzyme, full length), sequence (P49327 whole entry, the tested form may be a part): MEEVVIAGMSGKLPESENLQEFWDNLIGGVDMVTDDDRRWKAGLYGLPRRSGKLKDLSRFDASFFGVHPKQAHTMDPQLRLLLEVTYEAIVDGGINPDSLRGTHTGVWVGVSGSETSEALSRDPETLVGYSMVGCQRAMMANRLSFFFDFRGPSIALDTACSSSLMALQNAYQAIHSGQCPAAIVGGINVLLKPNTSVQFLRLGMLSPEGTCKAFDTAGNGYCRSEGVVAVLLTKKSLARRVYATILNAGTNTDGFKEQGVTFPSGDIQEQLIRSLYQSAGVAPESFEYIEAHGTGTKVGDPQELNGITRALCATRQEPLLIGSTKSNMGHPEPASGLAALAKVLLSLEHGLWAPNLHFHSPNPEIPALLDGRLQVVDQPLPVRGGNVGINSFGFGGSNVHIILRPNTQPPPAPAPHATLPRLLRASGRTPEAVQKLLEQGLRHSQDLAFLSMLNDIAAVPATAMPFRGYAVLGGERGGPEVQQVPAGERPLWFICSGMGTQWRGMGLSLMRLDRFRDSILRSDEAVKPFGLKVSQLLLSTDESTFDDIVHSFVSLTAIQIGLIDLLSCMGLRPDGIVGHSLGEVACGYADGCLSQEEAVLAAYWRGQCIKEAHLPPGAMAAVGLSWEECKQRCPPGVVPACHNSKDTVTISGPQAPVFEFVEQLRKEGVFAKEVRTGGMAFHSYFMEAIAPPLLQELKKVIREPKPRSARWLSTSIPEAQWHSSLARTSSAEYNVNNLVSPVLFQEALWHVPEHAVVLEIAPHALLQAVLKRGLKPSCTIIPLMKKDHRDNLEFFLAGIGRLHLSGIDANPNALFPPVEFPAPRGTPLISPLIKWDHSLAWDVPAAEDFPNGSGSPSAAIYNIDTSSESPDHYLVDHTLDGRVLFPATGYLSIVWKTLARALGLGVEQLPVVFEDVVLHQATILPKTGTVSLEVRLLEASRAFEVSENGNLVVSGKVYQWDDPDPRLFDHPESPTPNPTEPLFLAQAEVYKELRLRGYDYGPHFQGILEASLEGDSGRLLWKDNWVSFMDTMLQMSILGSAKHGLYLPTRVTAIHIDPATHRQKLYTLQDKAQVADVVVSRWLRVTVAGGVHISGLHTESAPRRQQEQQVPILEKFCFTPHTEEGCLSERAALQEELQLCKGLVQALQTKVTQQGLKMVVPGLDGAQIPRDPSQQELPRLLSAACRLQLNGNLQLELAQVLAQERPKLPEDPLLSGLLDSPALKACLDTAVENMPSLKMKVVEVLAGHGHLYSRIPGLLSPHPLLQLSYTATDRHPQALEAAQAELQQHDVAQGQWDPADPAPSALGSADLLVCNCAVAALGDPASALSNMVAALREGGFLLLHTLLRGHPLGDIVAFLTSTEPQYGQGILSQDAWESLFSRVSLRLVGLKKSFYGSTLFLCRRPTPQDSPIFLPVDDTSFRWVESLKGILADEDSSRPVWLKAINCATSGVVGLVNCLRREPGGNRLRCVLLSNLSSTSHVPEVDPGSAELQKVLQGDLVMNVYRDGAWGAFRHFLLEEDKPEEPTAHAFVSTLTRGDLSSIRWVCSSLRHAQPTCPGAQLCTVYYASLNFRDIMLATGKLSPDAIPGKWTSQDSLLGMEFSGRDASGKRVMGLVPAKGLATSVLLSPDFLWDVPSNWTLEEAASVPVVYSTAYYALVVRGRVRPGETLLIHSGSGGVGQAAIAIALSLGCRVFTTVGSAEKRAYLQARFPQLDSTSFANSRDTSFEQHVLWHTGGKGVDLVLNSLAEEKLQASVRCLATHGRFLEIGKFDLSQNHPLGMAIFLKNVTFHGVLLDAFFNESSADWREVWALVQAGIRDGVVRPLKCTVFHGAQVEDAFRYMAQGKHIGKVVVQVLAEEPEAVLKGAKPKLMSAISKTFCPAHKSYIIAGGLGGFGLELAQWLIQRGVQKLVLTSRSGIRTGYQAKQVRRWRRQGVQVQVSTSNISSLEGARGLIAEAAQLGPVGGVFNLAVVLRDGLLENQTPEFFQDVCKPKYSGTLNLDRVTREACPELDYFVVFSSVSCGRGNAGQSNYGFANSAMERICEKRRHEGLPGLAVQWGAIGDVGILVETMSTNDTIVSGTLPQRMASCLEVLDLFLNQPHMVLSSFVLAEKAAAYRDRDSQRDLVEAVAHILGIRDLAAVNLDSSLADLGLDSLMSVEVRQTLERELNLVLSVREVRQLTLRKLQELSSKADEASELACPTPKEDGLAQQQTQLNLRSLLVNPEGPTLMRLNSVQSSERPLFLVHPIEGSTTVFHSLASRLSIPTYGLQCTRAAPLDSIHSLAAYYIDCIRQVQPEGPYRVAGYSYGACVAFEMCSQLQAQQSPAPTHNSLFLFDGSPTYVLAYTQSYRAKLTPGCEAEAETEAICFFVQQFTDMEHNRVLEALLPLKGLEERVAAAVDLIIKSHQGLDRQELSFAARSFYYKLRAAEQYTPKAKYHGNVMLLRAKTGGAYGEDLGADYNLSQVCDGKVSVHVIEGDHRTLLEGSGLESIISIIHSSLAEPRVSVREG
Method: After 20 minutes incubation at room temperature the plate was measured again (T2).
The decrease in absorbance was calculated as (Absorbance before incubation T1)−(Absorbance following incubation T2).
Raw data generated by the instrument were normalized to % Controlmin values, which were calculated as: % Controlmin=100*(x−mLC)/(mHC−mLC)
where mLC and mHC were the means of the low control wells and high control wells on the plate, after manual exclusion of outliers. A plot of Controlmin versus test compound concentration was fitted to a 4-parameter logistic curve using a non-linear least squares regression method.

[3] = tested on: PC-3M-Luc-C6 prostate cells; test: In Vitro PC-3M-Luc-C6 Prostate Cell Proliferation Assay in Lipid Reduced Medium; type: cell-based; conditions: Prostate cell, 96 h, read-out: pIC50 PC-3M-Luc-C6 prostate cell, 10% lipid reduced serum, 96 h, ATP-glow (converted)
Method: PC-3M-Luc-C6 prostate cells were obtained from Xenogen Corporation. […] The cells were passaged twice a week.
The next day 10 μl test compound/DMSO diluted in medium was added (3E-5M, 1E-5M, 3E-6M, 1E-6M, 3E-7M, 1E-7M, 3E-8M, 1E-8M final concentration). Compounds were tested in duplicate. After 96 h incubation at 37° C., 5% CO2 25 μl ATP-glow mix was added. The plate was incubated for 30 min at 37° C. and luminescence was measured with the Envision.
(§1) pIC50 values were calculated as follows. Raw data generated by the instruments were normalized to % Controlmin values, which were calculated as: % Controlmin=100*(x−mLC)/(mHC−mLC),
(§2) where mLC and mHC are the means of the low control wells and high control wells on the plate, after manual exclusion of outliers. The relation between the % Controlmin values and concentration was fitted to a 4-parameter logistic curve using a non-linear least squares regression method to determine the pIC50 value. Outlying data points were excluded manually to get a correct fit. […] The IC50 parameter was always determined by non-linear regression, but one or more of the other parameters may have been held fixed on a relevant input value, such as 0 for the bottom values.

[4] = tested on: LNCaP_Vancouver prostate cells; test: In Vitro LNCaP Vancouver Prostate Cell Proliferation Assay in Lipid Reduced Medium; type: cell-based; conditions: Prostate cell, 96 h, 10% lipid reduced serum, ATP-glow, read-out: pIC50 LNCaP_Vancouver prostate cell (converted)
Method: LNCaP_Vancouver prostate cells were obtained from the Vancouver Prostate Cancer Centre.
Compounds were tested in duplicate. After 96 h incubation at 37° C., 5% CO2 25 μl ATP-glow mix was added. The plate was incubated for 30 min at 37° C. and luminescence was measured with the Envision.
as §1, §2

hFASN enzyme (full length), sequence (P49327 whole entry): as the sequence (P49327 whole entry, the tested form may be a part) above

Compound | Human FASN pIC50 [1] | FASN Keto-reductase Domain pIC50 [2] | further results
CC1(C)N=C(c2ccc(-c3ccc4cccc(F)c4c3)cc2F)N(C[C@@H]2CCN(C(=O)C3CC3)C2)C1=O [Compound 67, (R)-1-((1-(cyclopropanecarbonyl)pyrrolidin-3-yl)methyl)-2-(2-fluoro-4-(8-fluoronaphthalen-2-yl)phenyl)-4,4-dimethyl-1H-imidazol-5(4H)-one] | – | – | IC50 (A2780 ovarian cells): > 10 µM
CC1(C)N=C(c2ccc(-c3ccc4cc(F)ccc4c3)cc2)N(C[C@@H]2CCN(C(=O)C3CC3)C2)C1=O [Compound 30, (R)-1((1-(cyclopropanecarbonyl)pyrrolidin-3-yl)methyl)-2-(4-(6-fluoronaphthalen-2-yl)phenyl)-4,4-dimethyl-1H-imidazol-5(4H)-one] | 7.26 | 7.17 | –
CC1(C)N=C(c2ccc(-c3ccc4occc4c3)cc2)N(C[C@@H]2CCN(C(=O)C3CC3)C2)C1=O [Compound 3, (R)-2-(4-(benzofuran-5-yl)phenyl)-1-((1-(cyclopropanecarbonyl)pyrrolidin-3-yl)methyl)-4,4-dimethyl-1H-imidazol-5(4H)-one] | 7.09 | 6.33 | –
CC1(C)N=C(c2ccc(-c3ccc4cncnc4c3)cc2)N(C[C@@H]2CCN(C(=O)C3CC3)C2)C1=O [Compound 42, (R)-1-((1-(cyclopropanecarbonyl)pyrrolidin-3-yl)methyl)-4,4-dimethyl-2-(4-(quinazolin-7-yl)phenyl)-1H-imidazol-5(4H)-one] | 6.65 | 6.32 | –
CC1(C)N=C(c2ccc(-c3ccc(-c4ccncc4)cc3)cc2F)N(CC2CN(C(=O)C3CC3)C2)C1=O [Compound 22, 1-((1-(cyclopropanecarbonyl)azetidin-3-yl)methyl)-2-(3-fluoro-4′-(pyridin-4-yl)-[1,1′-biphenyl]-4-yl)-4,4-dimethyl-1H-imidazol-5(4H)-one] | 6.80 | 6.57 | –
Cn1cc(-c2ccc(-c3ccc(C4=NC(C)(C)C(=O)N4CC4CN(C(=O)C5CC5)C4)cc3)cc2)cn1 [Compound 17, 1-((1-(cyclopropanecarbonyl)azetidin-3-yl)methyl)-4,4-dimethyl-2-(4′-(1-methyl-1H-pyrazol-4-yl)-[1,1′-biphenyl]-4-yl)-1H-imidazol-5(4H)-one] | 6.26 | 5.57 | –
Cn1ncc2cc(-c3ccc(C4=NC(C)(C)C(=O)N4CC4CN(C(=O)C5CC5)C4)c(F)c3)ccc21 [Compound 32, 1-((1-(cyclopropanecarbonyl)azetidin-3-yl)methyl)-2-(2-fluoro-4-(1-methyl-1H-indazol-5-yl)phenyl)-4,4-dimethyl-1H-imidazol-5(4H)-one] | 6.29 | 5.86 | –
CC1(C)N=C(c2ccc(-c3ccc4occc4c3)cc2)N(C[C@@H]2CCN(C(=O)C3(F)CC3)C2)C1=O [Compound 4, (R)-2-(4-(benzofuran-5-yl)phenyl)-1-((1-(1-fluorocyclopropanecarbonyl)pyrrolidin-3-yl)methyl)-4,4-dimethyl-1H-imidazol-5(4H)-one] | 6.92 | 6.22 | –
COCC1(C)N=C(c2ccc(-c3ccc4occc4c3)cc2)N(C[C@@H]2CCN(C(=O)C3CC3)C2)C1=O (mixture of isomers) [Compound 8, (4RS)-2-(4-(Benzofuran-5-yl)phenyl)-1-(((R)-1-(cyclopropanecarbonyl)pyrrolidin-3-yl)methyl)-4-(methoxymethyl)-4-methyl-1H-imidazol-5(4H)-one] | – | – | IC50 ([1]; read-out: Human FASN pIC50 (converted)): 0.24 µM; IC50 ([2]; read-out: FASN Keto-reductase Domain pIC50 (converted)): 0.389 µM

The next lines start with results.

Human FASN pIC50 [1] | FASN Keto-reductase Domain pIC50 [2] | Compound | further results
7.26 | 7.32 | CC1(C)N=C(c2ccc(-c3ccc4cnccc4c3)cc2F)N(C[C@@H]2CCN(C(=O)C3CC3)C2)C1=O [Compound 68, (R)-1-((1-(cyclopropanecarbonyl)pyrrolidin-3-yl)methyl)-2-(2-fluoro-4-(isoquinolin-6-yl)phenyl)-4,4-dimethyl-1H-imidazol-5(4H)-one] | IC50 (A2780 ovarian cells): > 10 µM
6.11 | 5.93 | CC1(C)N=C(c2ccc(-c3ccc4cncnc4c3)cc2F)N(CC2CN(C(=O)C3CC3)C2)C1=O [Compound 43, 1-((1-(cyclopropanecarbonyl)azetidin-3-yl)methyl)-2-(2-fluoro-4-(quinazolin-7-yl)phenyl)-4,4-dimethyl-1H-imidazol-5(4H)-one] | IC50 [3]: 0.871 µM; IC50 [4]: 2.34 µM
6.79 | 6.65 | CC1(C)N=C(c2ccc(-c3ccc4cncnc4c3)cc2F)N(C[C@@H]2CCN(C(=O)C3CC3)C2)C1=O [Compound 44, (R)-1-((1-(cyclopropanecarbonyl)pyrrolidin-3-yl)methyl)-2-(2-fluoro-4-(quinazolin-7-yl)phenyl)-4,4-dimethyl-1H-imidazol-5(4H)-one] | –
6.25 | 5.77 | CC1(C)N=C(c2ccc(-c3nc4ccccc4o3)cc2F)N(CC2CN(C(=O)C3CC3)C2)C1=O [Compound 52, 2-(4-(benzo[d]oxazol-2-yl)-2-fluorophenyl)-1-((1-(cyclopropanecarbonyl)azetidin-3-yl)methyl)-4,4-dimethyl-1H-imidazol-5(4H)-one] | –
7.37 | 7.60 | Cc1cc(-c2ccc3cc(F)ccc3c2)ccc1C1=NC(C)(C)C(=O)N1C[C@@H]1CCN(C(=O)C2(C)CC2)C1 [Compound 86, (R)-2-(4-(6-fluoronaphthalen-2-yl)-2-methylphenyl)-4,4-dimethyl-1-((1-(1-methylcyclopropanecarbonyl)pyrrolidin-3-yl)methyl)-1H-imidazol-5(4H)-one] | –
6.99 | 6.76 | Cc1cc(-c2ccc3c(c2)ncn3C)ccc1C1=NC(C)(C)C(=O)N1CC1CN(C(=O)C2(C)CC2)C1 [Compound 83, 4,4-dimethyl-2-(2-methyl-4-(1-methyl-1H-benzo[d]imidazol-5-yl)phenyl)-1-((1-(1-methylcyclopropanecarbonyl)azetidin-3-yl)methyl)-1H-imidazol-5(4H)-one] | –
7.48 | 7.28 | CC1(C)N=C(c2ccc(-c3ccc4cc(F)ccc4c3)cc2F)N(C[C@@H]2CCN(C(=O)C3CC3)C2)C1=O [Compound 66, (R)-1-((1-(cyclopropanecarbonyl)pyrrolidin-3-yl)methyl)-2-(2-fluoro-4-(6-fluoronaphthalen-2-yl)phenyl)-4,4-dimethyl-1H-imidazol-5(4H)-one] | IC50 (A2780 ovarian cells): > 10 µM
